Results taken from paper PMC9032693, “Biological Evaluation of New Thienopyridinium and Thienopyrimidinium Derivatives as Human Choline Kinase Inhibitors” (Pharmaceutics, 2022).

Legend:
[1] = Solubility as observed in the enzyme inhibition assays; format: physicochemical; set-up: key to solubility (footnote b): -: The compound was not soluble; conditions: for solubility (footnote b): CK inhibition assay at 10 and 30 µM
HeLa [2] = assay: Antiproliferative activity, resazurin assay, 72 h; format: cell-based, human
Method: (§1) Human cervix carcinoma (HeLa), Non-small lung adenocarcinoma (A549), Colon adenocarcinoma (HT29), and human triple negative breast cancer (MDA-MB-231) were cultured in Dulbecco’s modified Eagle’s media (DMEM). B-acute lymphoblastic leukemia (RS4;11 and SEM), T-acute lymphoblastic leukemia (Jurkat), and human promyelocytic cells (HL-60), were cultured in RPMI-1640 medium. Both media were purchased from Gibco, Life Technologies (Milan, Italy) and supplemented with 10% Fetal Bovine Serum (FBS, Invitrogen, Milan, Italy,). Every six months, each cell line was checked for the presence of mycoplasma by RT-PCR.
(§2) Stock solutions (10 mM) of the different compounds were made in DMSO. Cancer cells were seeded in tissue-treated, flat bottom, 384-well plates (Corning) according to their optimal density, (A549 1000 cells/wells; MDA-MB-231, HeLa and HT-29 2000 cells/well and finally Jurkat, HL-60 SEM and RS4;11 20.000 cells/well) in 27 µL of complete medium per well.
(§3) The day after cell seeding and immediately before cell treatment, 10 mM stock solutions of the compounds were pre-diluted to a […] concentration in 250 µL of Hank’s in a 96-well plate (Corning). Subsequent 1:5 dilutions were carried out using a microlab STAR 96-CORE liquid handling system (Hamilton), a robotized liquid handling tool that was employed for all steps, from cell seeding to drug dilution and cell treatment to ensure high reproducibility while reducing time for large screening execution. This pre-dilution step was necessary to avoid DMSO-related cytotoxicity and compound precipitation in the cell culture medium. In every case, DMSO concentration never exceeded 0.1%.
(§4) Positive (Bortezomib 1 µM) and negative (0.1% DMSO) controls were included in all the screened plates to allow for monitoring the Z’ factor throughout the entire screening. Cells were treated with 3 µL of the previously made dilutions; thus, generating a 6-point 5-fold dose–response curve starting from 10 µM. Within a plate, each drug concentration was tested in duplicate in two independent experiments for each compound.
(§5) Treated cells were then placed inside the CO2 incubator for 72 h at 37 °C. Cell viability was assessed by resazurin assay, in which 3 µL of resazurin per well were added using the previously described automated platform. Plates were placed in the incubator at 37 °C for 2 h, and then the fluorescence of each plate was read using a Spark 10 M multimode microplate reader (Tecan Group Ltd., Mannedorf, Switzerland) with 535 nm excitation wavelength and 600 nm emission wavelength.

Jurkat = assay: Antiproliferative activity, resazurin assay, 72 h; format: cell-based, human
Method: as §1, §2, §3, §4, §5

A549 [3] = assay: Antiproliferative activity, resazurin assay, 72 h; format: cell-based, human
Method: as §1, §2, §3, §4, §5

SEM cells = assay: Antiproliferative activity, resazurin assay, 72 h; format: cell-based, human
Method: as §1, §2, §3, §4, §5

RS 4;11 = assay: Antiproliferative activity, resazurin assay, 72 h; format: cell-based, human
Method: as §1, §2, §3, §4, §5

MDA-MB-231 [4] = assay: Antiproliferative activity, resazurin assay, 72 h; format: cell-based, human
Method: as §1, §2, §3, §4, §5

HL-60 = assay: Antiproliferative activity, resazurin assay, 72 h; format: cell-based, human
Method: as §1, §2, §3, §4, §5

HT29 = assay: Antiproliferative activity, resazurin assay, 72 h; format: cell-based, human
Method: as §1, §2, §3, §4, §5

CKα1 = target: T1, CKα1 (Homo sapiens, UniProt P35790); assay: Choline kinase assay ([methyl-14C]choline into PCho, purified enzyme); format: biochemical; conditions: for % Inhibition at 10 µM: purified CKα1, inhibitor 10 µM; for % Inhibition at 10 µM / % Inhibition at 30 µM: end-point assay; for % Inhibition at 30 µM: purified CKα1, inhibitor 30 µM
T1 construct: an N-terminally His-tagged truncated form of CKα1 (Δ75–457) was cloned into a pET-28a vector; His tag (N); made in house; host or cells: E. coli BL21 (DE3) Star
Method: The protein was produced and purified as previously described. Briefly, an N-terminally His-tagged truncated form of CKα1 (Δ75–457) was cloned into a pET-28a vector and expressed at 37 °C in E. coli BL21 (DE3) Star cells using 1 mM isopropyl β-D-1-thiogalactopyranoside (IPTG). After centrifugation, the cellular pellet was resuspended in 50 mM Tris-HCl pH 7.5, 500 mM NaCl, 0.2 mM phenylmethylsulphonyl fluoride (PMSF), DNase, and 0.5 mM β-mercaptoethanol, sonicated and subjected to a two-step purification procedure to isolate the target enzyme. […] Protein elution was completed using buffer A + 400 mM imidazole. A second size-exclusion chromatography step was then carried out to achieve complete purity. To this end, we used a HiPrep 26/60 Sephacryl 100 HR column (GE Healthcare, Little Chalfont, Buckinghamshire, UK) and a 20 mM Tris/HCl pH 7.5, 150 mM NaCl running buffer.
To study the effect of the compounds on CKα, an in vitro enzymatic assay was performed using the purified enzyme as previously reported in [19, 28, 29]. Briefly, the incorporation of ^14C from [methyl-^14C]choline into PCho in either the absence (control) or presence of different inhibitors at varying concentrations was used to determine the CK activity. The reaction mixture included 20 ng of purified CKα1, 10 mM ATP, 10 mM MgCl2, 100 mM Tris-HCl pH 8.5, and increasing concentrations of compounds. The mixture was preincubated at 37 °C for 5 min. Then, [methyl-^14C]choline chloride (1 mM, 4500 dpm/nmol) was added and the reaction was left to proceed for 10 min at 37 °C. The assay was stopped by immersing the reaction tubes in boiling water. PCho was separated by Thin Layer Chromatography using methanol/0.6% NaCl/28% NH4OH in water (50:50:5, v/v/v) as solvent. The radioactivity associated into PCho was determined in a Beckman 6000-TA (Madrid, Spain) liquid scintillation counter. The 50% inhibitory concentrations (IC50 values) were determined from the % enzyme activity at different concentrations of synthetic inhibitors relative to the control by using a sigmoidal dose–response curve (ED50plus v1.0 software).

HepG2 cells = assay: Choline uptake assay ([methyl-14C]choline); format: cell-based, human; conditions: HepG2, 24 h
Method: Choline uptake was assessed as previously reported. Briefly, HepG2 cells (200,000 cells/well) were incubated for 24 h at 37 °C with different concentrations of CKα1 inhibitors. Then, cells were exposed to [methyl-^14C]choline ([…], 31 Ci/mol) for 5 min at 37 °C. The reaction was stopped by two washes with ice-cold PBS containing 580 μM choline. The cells were solubilized in NaOH 0.1 N and the total amount of radiolabel taken up by the cells was measured by liquid scintillation using a Beckman 6000-TA counter (Madrid, Spain).

HeLa [5] = assay: Apoptosis by annexin-V-FITC/PI flow cytometry; format: cell-based, human; conditions: 1 and 5 µM, 72 h
Method: (§6) MDA-MB-231, A549, and HeLa cells were treated with compound Ff-35 for 72 h and then stained using a commercial kit (Annexin-V-Fluos, Roche Diagnostics, Milano, Italy) containing Annexin-V conjugated with fluorescein isothiocyanate and Propidium iodide (PI). All the procedures were executed according to manufacturer’s instructions. Apoptotic cells were then analyzed through a cytofluorimeter (Beckman Coulter Cytomics FC500).

A549 [6] = assay: Apoptosis by annexin-V-FITC/PI flow cytometry; format: cell-based, human; conditions: A549, 1 and 5 µM, 72 h
Method: as §6

MDA-MB-231 [7] = assay: Apoptosis by annexin-V-FITC/PI flow cytometry; format: cell-based, human; conditions: MDA-MB-231, 1 and 5 µM, 72 h
Method: as §6

HeLa [8] = assay: Cell cycle analysis by flow cytometry; format: cell-based, human; conditions: 1.0 µM, 48 and 72 h
Method: (§7) Three different cell lines (MDA-MB-231, A549, and HeLa) were used to evaluate the effect of compound Ff-35 on the cell cycle. Briefly, cells were treated with the test compound for 48 and 72 h. After this incubation period the cells were trypsinized, centrifuged, and fixed by adding cold ethanol (70% v/v). Cell cycles are then acquired through a cytofluorimeter (Beckman Coulter Cytomics FC500, Milano, Italy) and subsequently analyzed using MultiCycle software (Phoenix Flow Systems, San Diego, CA, USA).

A549 [9] = assay: Cell cycle analysis by flow cytometry; format: cell-based, human; conditions: A549, 1.0 µM, 48 and 72 h
Method: as §7

MDA-MB-231 [10] = assay: Cell cycle analysis by flow cytometry; format: cell-based, human; conditions: MDA-MB-231, 1.0 µM, 48 and 72 h
Method: as §7

T1 sequence (P35790 75-457): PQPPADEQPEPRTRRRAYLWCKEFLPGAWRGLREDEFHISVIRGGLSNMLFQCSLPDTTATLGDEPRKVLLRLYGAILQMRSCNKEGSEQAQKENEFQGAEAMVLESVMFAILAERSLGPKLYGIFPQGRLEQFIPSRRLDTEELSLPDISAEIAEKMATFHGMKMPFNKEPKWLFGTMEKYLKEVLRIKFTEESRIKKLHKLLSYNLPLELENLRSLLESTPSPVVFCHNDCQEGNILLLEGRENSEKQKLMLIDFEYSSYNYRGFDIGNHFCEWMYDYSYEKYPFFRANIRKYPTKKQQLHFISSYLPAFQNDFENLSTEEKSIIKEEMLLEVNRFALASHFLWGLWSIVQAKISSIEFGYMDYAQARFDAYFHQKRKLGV

Row | GI50 (HeLa [2]) [nM] | GI50 (Jurkat) [nM] | GI50 (A549 [3]) [nM] | GI50 (MDA-MB-231 [4]) [nM] | GI50 (HL-60) [nM] | GI50 (HT29) [nM] | Structure (SMILES) | solubility (footnote b) [1] | GI50 (SEM cells) [nM] | GI50 (RS 4;11) [nM] | % Inhibition at 10 µM (CKα1) [%] | % Inhibition at 30 µM (CKα1) [%] | % Inhibition Choline Uptake at 0.5 μM (HepG2 cells) [%] | % Inhibition Choline Uptake at 2 μM (HepG2 cells) [%] | further results
1 | 620 ± 20 | 5480 ± 500 | 280 ± 20 | 330 ± 20 | 140 ± 10 | 1470 ± 60 | [Br-].[Br-].c1cc2c(s1)c(N1CCCCC1)nc[n+]2Cc1ccc(CCc2ccc(C[n+]3cnc(N4CCCCC4)c4sccc43)cc2)cc1 [Fa-25] | - ^b | 2530 ± 30 | 1840 ± 100 |  |  |  |  | solubility (in words) ([1]; IC50 could not be determined): insolubility
2 | 3020 ± 400 | 6200 ± 900 | 1430 ± 100 | 2260 ± 300 | 440 ± 20 | > 10000 | [Br-].[Br-].c1cc2c(N3CCCCCC3)nc[n+](Cc3ccc(OCCOc4ccc(C[n+]5cnc(N6CCCCCC6)c6ccsc65)cc4)cc3)c2s1 [Ff-36] |  | 2540 ± 200 | 2260 ± 300 | 84.47 | 96.07 | 71.78 ± 0.1 | 95.32 ± 0.29 | IC50 (CKα1; concentration required to inhibit CKα1 enzyme by 50%): 350 ± 50 nM
3 |  |  |  |  |  |  | [Br-].[Br-].c1cc2c(N3CCCCCC3)nc[n+](Cc3ccc(CCCCc4ccc(C[n+]5cnc(N6CCCCCC6)c6ccsc65)cc4)cc3)c2s1 [Ff-35] |  |  |  | 90.55 | 97.80 | 84.99 ± 1.3 | 96.62 ± 0.316 | apoptotic cells (HeLa [5]): significant increase in apoptotic cells in a concentration-dependent manner; apoptotic cells (A549 [6]): significant increase in apoptotic cells in a concentration-dependent manner; apoptotic cells (MDA-MB-231 [7]): significant increase in apoptotic cells in a concentration-dependent manner; effect on cell cycle (HeLa [8]): notable increase in the G1 phase accompanied by a reduction in the S phase; effect on cell cycle (A549 [9]): notable increase in the G1 phase accompanied by a reduction in the S phase; effect on cell cycle (MDA-MB-231 [10]): notable increase in the G1 phase accompanied by a reduction in the S phase; % Inhibition Choline Uptake at 0.1 μM (HepG2 cells; 0.1 μM): 35.64 ± 0.7%

Row | Structure (SMILES) | GI50 (HeLa [2]) [nM] | GI50 (Jurkat) [nM] | GI50 (A549 [3]) [nM] | GI50 (MDA-MB-231 [4]) [nM] | GI50 (HL-60) [nM] | GI50 (HT29) [nM] | solubility (footnote b) [1] | GI50 (SEM cells) [nM] | GI50 (RS 4;11) [nM] | % Inhibition at 10 µM (CKα1) [%] | % Inhibition at 30 µM (CKα1) [%] | % Inhibition Choline Uptake at 0.5 μM (HepG2 cells) [%] | % Inhibition Choline Uptake at 2 μM (HepG2 cells) [%] | further results
4 | [Br-].[Br-].c1cc2c(N3CCCCCC3)nc[n+](Cc3ccc(-c4ccc(C[n+]5cnc(N6CCCCCC6)c6ccsc65)cc4)cc3)c2s1 [Fg-18] | 1810 ± 20 | 7040 ± 800 | 210 ± 10 | 610 ± 30 | 790 ± 20 | 2320 ± 20 | - ^b | > 10000 | 2650 ± 40 |  |  |  |  | 
